Data: US20110223157A1, “METHODS FOR THE TREATMENT OF NON-HODGKIN'S LYMPHOMAS USING LENALIDOMIDE, AND GENE AND PROTEIN BIOMARKERS AS A PREDICTOR” (priority 2010, published 2011)
Read-outs that look alike come from different tables or passages of the source.

Experiments:
Format in all cases: cell-based
NFκB p65 = NFκB p65 activity, Active Motif transcription factor assay on nuclear extracts of treated DLBCL cells; conditions: 2 days; for inhibition at 1 µM / inhibition at 10 µM: read-out: P65 Inhibition (%) mean ± SD
Protocol: (§1) DLBCL cells were treated with lenalidomide or an IKK1/2 dual inhibitor (used as a positive inhibitor control) for 2 days. NFκB activity was examined with Active Motif transcription factor assay using nuclear extracts from cells following treatment.

DLBCL cell lines = assay: Proliferation of DLBCL cells in vitro, 3H-thymidine incorporation
Protocol: A panel of DLBCL cell lines of various cytogenetic features was tested for their sensitivity to the antiproliferative activity of lenalidomide. Cells were treated with lenalidomide for 5 days at 37° C.; proliferation of cells was determined using ^3H-thymidine incorporation method. Results of 3 independent experiments are shown (mean±SD). […] ABC-subtype cells appear more sensitive to the antiproliferative effect than other subtype cells including GCB-DLBCL and PMBL cells.

NFκB p50 = NFκB p50 activity, Active Motif transcription factor assay on nuclear extracts of treated DLBCL cells; conditions: 2 days; for inhibition at 1 µM / inhibition at 10 µM: read-out: P50 Inhibition (%) mean ± SD
Protocol: as §1

[1] = 48 h, KARPS-1160p cells (PBML), 1 μM
[2] = Homo sapiens, OCI-Ly3, 48 h, OCI-Ly3 cells, 1 μM
[3] = Homo sapiens, OCI-Ly3, 48 h, OCI-Ly3 cells
[4] = Homo sapiens, OCI-Ly10, 48 h, OCI-Ly10 cells, 1 μM
[5] = Homo sapiens, OCI-Ly10, 48 h, OCI-Ly10 cells
[6] = Homo sapiens, TMD8, 48 h, TMD8 cells, 1 μM
[7] = Homo sapiens, TMD8, 48 h, TMD8 cells

With Nc1cccc2c1CN(C1CCC(=O)NC1=O)C2=O (stereo not drawn) [lenalidomide, 3-(4-amino-1-oxo-1,3-dihydro-isoindol-2-yl)-piperidine-2,6-dione] the “Effect on NFκB p65 activity” value (NFκB p65; 1 μM, U2932 cells, p<0.001) was “significantly inhibits”, the inhibition at 1 µM (NFκB p65; [1]) was 5.9 ± 0.49% and the inhibition at 10 µM (NFκB p65; 48 h, KARPS-1160p cells (PBML)) was 5.4 ± 0.35%. For the same compound, the inhibition at 1 µM (NFκB p65; 48 h, RIVA cells, 1 μM) was 19.3 ± 15.6%, the inhibition at 10 µM (NFκB p65; 48 h, RIVA cells) was 41.7 ± 26.8% and the inhibition at 1 µM (NFκB p65; 48 h, U2392 cells, 1 μM) was 40 ± 3.7%. The inhibition at 10 µM (NFκB p65; 48 h, U2392 cells) was 47.9 ± 6.2%, the inhibition at 1 µM (NFκB p65; [2]) was -17.4 ± 13.4% and the inhibition at 10 µM (NFκB p65; [3]) was -15.8 ± 15%. It also gave an inhibition at 1 µM (NFκB p65; [4]) of 27.6 ± 20.7%, an inhibition at 10 µM (NFκB p65; [5]) of 22 ± 12.2% and an inhibition at 1 µM (NFκB p65; [6]) of 14.1 ± 9%. The inhibition at 10 µM (NFκB p65; [7]) was 49.7 ± 32.8%, the Effect on proliferation (DLBCL cell lines; ABC cell lines U2392, RIVA, TMD8 and OCI-Ly10) was “significantly inhibits” and the “Starting concentration of significant (p<0.05) inhibition of proliferation” value (DLBCL cell lines; several DLBCL lines, particularly ABC-subtype Riva, U2932, TMD8, OCI-Ly10, 5 days at 37° C.) was 0.1 to 1 µM. For the same compound, the “Effect on NFκB p50 activity” value (NFκB p50; 1 μM, U2932 cells, p<0.05) was “significantly inhibits”, the inhibition at 1 µM (NFκB p50; [1]) was 14.5 ± 0.95% and the inhibition at 10 µM (NFκB p50; 48 h, KARPS-1160p cells (PBML)) was 16.4 ± 0.28%. It also gave an inhibition at 1 µM (NFκB p50; 48 h, RIVA cells, 1 μM) of 11.1 ± 11.7%, an inhibition at 10 µM (NFκB p50; 48 h, RIVA cells) of 28.6 ± 21% and an inhibition at 1 µM (NFκB p50; 48 h, U2392 cells, 1 μM) of 32.5 ± 14.3%. The inhibition at 1 µM (NFκB p50; [2]) was -10.3 ± 19.7%, the inhibition at 10 µM (NFκB p50; [3]) was -9.5 ± 19.1% and the inhibition at 1 µM (NFκB p50; [4]) was 22.7 ± 18.8%. It also gave an inhibition at 10 µM (NFκB p50; [5]) of 22.6 ± 14.1%, an inhibition at 1 µM (NFκB p50; [6]) of 14.4 ± 16.4% and an inhibition at 10 µM (NFκB p50; [7]) of 48.5 ± 40.2%.
